Values joined by “and” are separate entries in the source; they are usually repeats but may differ in a detail not shown here. Equal entries are not always repeated.

One experiment has as its system monocytes. In words: Whole blood monocyte phagocytosis assay (pHrodo E. coli BioParticles, flow cytometry). As to conditions: human whole blood, 1 h incubation, then pHrodo E. coli BioParticles 30 min, mean of four experiments. The class given is cell-based. The procedure:
AnxA1 N-terminal fragments were assessed in whole blood phagocytosis assay. Whole blood from human subjects (45 μL) was incubated for 1 h with control peptide Anxa1 2-50 (100 nM) and test peptides Compound 1 (100 nM), Compound 2 (100 nM) and Compound 3 (30 nM), or vehicle in a 96-well plate. 50 μl pHrodo E. coli BioParticles Conjugate (5 μg/well) was added to the wells, and the plate was incubated at 37° C., 5% CO2 for 30 min. 150 μl of 4% PFA was added, and the plate incubated at 4° C. for 30 min. 30 μL from each well of the 96-well plate was transferred into flow cytometry tubes with 500 μL RPMI 1640 and 1 μL of Vybrant DyeCycle dye. Tubes were incubated for 30 min at 37° C. and 5% CO2, followed by addition of 2.5 mL of RPMI 1640 Medium in each tube.
Samples were acquired on the Attune NxT Flow Cytometer. Monocyte phagocytosis was determined as an increase in pHrodo Green fluorescence relative to control sample.

Experiment [1] has as its system polymorphonuclear leukocytes (PMNs). The experiment in a line: PMN (neutrophil) chemotaxis, Transwell migration, CellTiter Glo readout. The class given is cell-based, human. As to conditions: 10 uM compound in receiver wells; 1 h migration, 37 °C; PMNs from buffy coats of healthy volunteers. The method, then: AnxA1 N-terminal fragments were assessed in polymorphonuclear leukocytes (PMNs) isolated from buffy coats of healthy volunteers. PMNs were resuspended in migration medium (RPMI1640 (ATCC, Cat. No. 30-2001)+0.05% BSA-FAF) to a concentration of 5.5×10^6 cells/mL.
Receiver wells of a Transwell plate were filled with 200 μL of migration medium with 10 uM of compound 1, 2 or 3. Donor plate was inserted and 75 μL of cell suspension was added to upper wells ([…]). Plates were incubated for 1 h (37° C., 5% CO2, 95% humidity). The number of migrated cells was assessed by removing Transwell insert with cells from the plate in order to stop migration, followed by addition of 200 μL CellTiter Glo reagent to lower wells. Plates were incubated for 10 minutes in the dark (at room temperature), and 200 μL was transferred to white 96 well plates (Lumitrac 200). Luminescence was measured by use of EnVision 2104 (Perkin Elmer) (exposition time 0.1 s)
The chemotaxis response was estimated by calculating fold change compared to negative control (vehicle).

As to “AMVSEFLKQAWFIENEEQEYVQTLKSSK (Val24Leu variant of AnxA1 fragment; MISC_FEATURE - Val24Leu variant of AnxA1 fragment) [Compound 1]”, the “Fold increase relative to vehicle (monocyte phagocytosis)” value in the experiment with monocytes (peptide 100 nM) turned out to be 2.6 fold. In experiment [1], the “Fold increase relative to vehicle (PMN chemotaxis)” value is 3 fold and 3.1 fold.

Consider “AMVSEFLKQAWFIENEEQEYVQTLKSSKGGPGS (Val24Leu variant of AnxA1 fragment; MISC_FEATURE - Val24Leu variant of AnxA1 fragment) [Compound 2]”, for which the “Fold increase relative to vehicle (monocyte phagocytosis)” value in the experiment with monocytes (peptide 100 nM) is given as 2.8 fold. In addition, the “Fold increase relative to vehicle (PMN chemotaxis)” value in experiment [1] was 2 fold and 2.0 fold.

With “AMVSEFLKQAWFIENEEQEYVQTLKSSKGGPGSAVSPY (Val24Leu variant of AnxA1 fragment; MISC_FEATURE - Val24Leu variant of AnxA1 fragment) [Compound 3]”, the “Fold increase relative to vehicle (monocyte phagocytosis)” value in the experiment on monocytes (peptide 30 nM) is listed as 2.9 fold. Moreover, in experiment [1], the “Fold increase relative to vehicle (PMN chemotaxis)” value is 1.6 fold.

“AMVSEFLKQAWFIENEEQEYVQTVKSSKGGPGSAVSPYPTFNPSSDVAA (Synthetic sequence having some homology with human annexin 1) [Anxa1 2-50, reference compound]”: the “Fold increase relative to vehicle (monocyte phagocytosis)” value in the experiment on monocytes (peptide 100 nM) is 1.9 fold; in the experiment on monocytes (peptide 100 nM, listed as AnxA1 2-50), about 2 fold.
